Source: patent US9987296B2, “Compositions including anthocyanin or anthocyanidin for the prevention or treatment of Articular cartilage-associated conditions” (priority 2008, dated 2018)
“Also recorded” adds a separate entry of the source.

How the values were obtained:
IGF-1 = experiment: Real time RT-PCR for IGF-1 in human chondrocytes; assay type: cell-based; settings: for IGF-1 gene expression compared to IL-1 alone: 5 or 50 ug/mL with IL-1, 50 ug/mL alone (FIGS. 3, 4)
Description: Chondrocytes were prepared by the enzymatic digestion of knee cartilage, as previously described. (Ahmed S et al., J Nutr 2005 135:20962102). Chondrocytes were plated (1×10^6 cells/mL) in 35 mm culture dishes (BD, Mountain View, Calif.) and cultured in DMEM:F12 (Mediatech, Herndon, Va.) supplemented with 10% FCS and 1% Penn:Strep for 72 hrs at 37° C. and 5% CO2 in a tissue culture incubator. Chondrocytes were serum starved overnight and then exposed to either kuromanin or cyanidin chloride (5 or 50 ug/mL), progrado (2 or 10 ug/mL) alone or in combination in fresh serum-free medium for 1 hr prior to the addition of IL-β.
Total cytoplasmic RNA was prepared from primary cultures of human chondrocytes using a commercially available kit according to the instructions of the manufacturer (Qiagen, Valencia, Calif.). Real time quantitative RT-PCR with internal fluorescent hybridization probes was performed as previously described (Ahmed S et al., ECAM 2005 2:301-8) and the IGF-1 gene expression was quantified using a commercially available Gene Expression Assay kit (Applied Biosystems, CA). Expression of IGF-1 mRNA was normalized to […] mRNA expression. and the results were expressed as fold induction relative to controls.

[1] = tested on: bovine cartilage explants; experiment: Matrix synthesis (35S uptake) in bovine cartilage explants; assay type: cell-based
Description: Bovine cartilage explants (full thickness, 6 mm in diameter) were harvested from fresh femoral condyles. Human osteochondral plugs were harvested using 6 mm osteochondral grafting donor tool (Arthrez 1981-06S, Naples, Fla.) from femoral condyles retrieved from total knee arthroplasty surgery that had been stored in DMEM at 20 degrees C. for less than 24 hours. Full-thickness cartilage explants were cut from the subchondral bone. Each of the 6 mm cartilage disks were divided into 4 equal quadrants. Each quadrant was placed in a different experimental group. This allowed for a paired comparison and controlled for differences in grade of arthritis, thickness of cartilage, cell density, etc. The explants were washed 4-5 times with DMEM with 10% calf serum and were allowed to stabilize for 24 hours in a tissue culture incubator. Explants were then serum starved (0.1% calf serum) for 24 hours prior to commencement of cyanidin chloride treatment.
3 mL fresh media with 20 uCi/mL of ^35S-labeled sodium sulfate (NEX0414 Perkin Elmer, Boston, Mass.) (DMEM with 10% CS) was added to each of the explants along with 30 uL of 50 mM stock cyanidin chloride (MW 322.7 g/mole) solution (diluted in DMSO) (Chromadex Inc., Irvine, Calif.) to give the final cyanidin chloride concentration of (200 or 500 uM) in culture. Explants were subjected to cyanidin chloride treatment for 48 hours.
Radioactive media was aspirated after 48 hours and explants were washed in ice-cold 1×PBS for 10 minutes×3. Each cartilage explant quadrant was blotted dry and was placed in 500 uL of 2 mg/mL Proteinase K (Fisher Scientific, Fair Lawn, N.J.) in TE Buffer solution (10 mM Tris, 1 mM EDTA) and was allowed to rotate at 57 degrees C. for 24 hours in a hybridization oven until completely dissolved. Quantification of ^35S-labeled proteoglycans complexed to alcian blue by rapid filtration in multiwall plates was adopted and modified from Masuda et al Anal. Biochem 1994; 217:167-75. 75 uL of dilution buffer (50 mM Sodium Acetate pH^− 5.8. 0.5% Triton X-100) was added to each well of a 96 well plate (Millipore Multiscreen 96-well filtration system, Millipore, Billerica, Mass.) 25 uL of each digested cartilage explant sample was then loaded followed by 150 uL of 0.2% alcian blue solution (Alcian Blue 8GX electrophoresis grade, Sigma-Aldrich Inc., St. Louis Mo.) and was allowed to rotate for 1 hour at room temperature. The 96-well plate was then placed over a vacuum-manifold to aspirate the contents of the wells through the screen. The 3×200 uL vacuum washes with wash buffer (50 mM sodium acetate pI-I 5.8, 100 mM sodium sulfate, 50 mM MgCl2) were then performed. The 96-well filtration plate was then completely dried at 57 degrees C. for 5 minutes in a hybridization oven and was exposed to storage phosphor screen for 24 hours (Packard Instrument Company Inc., Meriden. Conn.). Phosphorimaging with Cyclone model A431200 (Packard Instrument Company Inc. Meriden, Conn.) was performed to quantify ^35S uptake by proteoglycans. ^35S uptake by proteoglycans in cartilage explants was normalized to DNA by Quant-iT ds DNA Assay Kit (Invitrogen Inc., Carlsbad Calif.).
The effect of cyanidin on bovine cartilage explants was tested. The dose response was also determined. Cartilage explants were treated with 1L-1 (50 ng/mL) for 24 hours. IL-1 reduces matrix synthesis and induces an inflammatory respond similar to osteoarthritis. Explants were then treated with cyanidin chloride at either 200 or 500 uM concentration for 24 hours. Matrix synthesis was monitored by measuring uptake of ^35S.
Bovine explants were initially subjected to IL-1 treatment for 24 hours. Explants were then treated with 500 uM cyanidin chloride in a low glucose (1 g/L) or high glucose concentration (4.5 g/L). […] The higher the glucose concentration increased matrix synthesis by 10%. The cyanidin treatment had small effect under low glucose conditions, but the effect was nearly 20% greater in the high glucose condition.

Row | Compound | IGF-1 gene expression (IGF-1; 50 ug/mL dose, duplicate, called anomalous) | IGF-1 gene expression compared to IL-1 alone (IGF-1) | effect on matrix synthesis, greater in high glucose than in low glucose ([1]; 500 uM, high glucose (4.5 g/L), after IL-1) | effect on matrix synthesis ([1]; 500 uM, low glucose (1 g/L), after IL-1) | matrix synthesis (35S uptake) ([1]; IL-1 50 ng/mL 24 hours, then 200 or 500 uM for 24 hours, listed as Cyanidin) | matrix synthesis (35S uptake) ([1]; IL-1 50 ng/mL 24 hours, then 200 or 500 uM for 24 hours, listed as cyanidin) | matrix synthesis (35S uptake) ([1]; IL-1 50 ng/mL 24 hours, then 200 or 500 uM for 24 hours, listed as cyanidin chloride) | matrix synthesis (35S uptake) ([1]; after IL-1, 500 uM combined with high glucose (4.5 g/L)) | IGF-1 gene expression (IGF-1; IL-1 with compound at 5 or 50 ug/mL) | increase of matrix synthesis ([1]; higher glucose concentration (4.5 g/L vs 1 g/L), after IL-1)
1 | Oc1cc(O)c2cc(O)c(-c3ccc(O)c(O)c3)[o+]c2c1 [Cyanidin chloride] | elevated above control | increased IGF-1 gene expression more than kuromanin; also recorded: greater compared to IL-1 alone when treated with cyanidin alone or in combination with IL-1 | ~20% | small effect | inconsistent effect | Initially a dose response was identified but difficult to reproduce | we could not reproduce this effect in several subsequent experiments | significantly induce chondroreparative activity; also recorded: increased matrix synthesis the most |  | 
2 | OC[C@H]1O[C@@H](Oc2cc3c(O)cc(O)cc3[o+]c2-c2ccc(O)c(O)c2)[C@H](O)[C@@H](O)[C@@H]1O.[Cl-] [Kuromanin chloride] |  | greater compared to IL-1 alone when treated with kuromanin at high dose |  |  |  |  |  |  | no further changing in this pattern | 
3 | O=C[C@H](O)[C@@H](O)[C@H](O)[C@H](O)CO [glucose] |  |  |  |  |  |  |  |  |  | 10%
